Assay results reported in patent US9522888B2, “Substituted bicyclic compounds” (BRISTOL-MYERS SQUIBB COMPANY, priority 2014, dated 2016).

How the values were obtained:
hS1P1/CHO cells = hS1P1/CHO cells (Homo sapiens (Human), UniProt P21453); assay: hS1P1 ERK phosphorylation (S1P1 pERK); assay type: cell-based; conditions: phosphate examples
Procedure, shortened: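 Agonism read as ERK phosphorylation (SureFire pERK) in hS1P1/CHO lysates, normalised to the maximal effect of 10 μM S1P. Cells were held 2 h in serum-free medium, then treated with compound for 7 min at 37° C. in HBSS/20 mM HEPES.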

human S1P1 = human S1P1 (Homo sapiens (Human), UniProt P21453); assay: S1P1 binding assay (33P-S1P radioligand competition, CHO cell membranes); conditions: phosphate examples; read-out: S1P1 Binding
Procedure, shortened: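 Radioligand is 33P-S1P, competing for membranes from human S1P1-expressing CHO cells. Membranes resuspended in 50 mM HEPES pH 7.5, 100 mM NaCl, 1 mM MgCl2, 2 mM EDTA.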

[1] = target: S1P1 (membranes prepared from S1P1/CHO cells) (Homo sapiens (Human), UniProt P21453); assay: Receptor [35S] GTPγS binding assay (S1P1 GTPγS); assay type: biochemical; conditions: phosphate examples; read-out: S1P1 GTPγS
Procedure, shortened: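 Agonist-stimulated [35S]GTPγS binding (0.2 nM final) to S1P1/CHO membranes, 3 μg protein/well, measured after 45 min at room temperature. Buffer contained 10 μM GDP, saponin and fatty-acid-free BSA at pH 7.5. Compounds tested as 11-point 3-fold series; bound label captured on filters, scintillation-counted, EC50 reported.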

[2] = target: S1P3 (membranes prepared from EDG3-Gal5-bla HEK293T cells) (Homo sapiens (Human), UniProt Q99500); assay: Receptor [35S] GTPγS binding assay (S1P3 GTPγS); assay type: biochemical; conditions: phosphate examples; read-out: S1P3 GTPγS
Procedure, shortened: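 Membranes (3 μg protein/well) from S1P1/CHO cells or EDG3-Gal5-bla HEK293T cells (S1P3) were incubated 45 min at room temperature with 0.2 nM final [35S]GTPγS in HEPES pH 7.5 buffer with 10 μM GDP, MgCl2 and saponin. Bound label counted after filtration; EC50 from 11-point, 3-fold dilutions.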

Chain of S1P3 (membranes prepared from EDG3-Gal5-bla HEK293T cells) (Q99500 whole entry): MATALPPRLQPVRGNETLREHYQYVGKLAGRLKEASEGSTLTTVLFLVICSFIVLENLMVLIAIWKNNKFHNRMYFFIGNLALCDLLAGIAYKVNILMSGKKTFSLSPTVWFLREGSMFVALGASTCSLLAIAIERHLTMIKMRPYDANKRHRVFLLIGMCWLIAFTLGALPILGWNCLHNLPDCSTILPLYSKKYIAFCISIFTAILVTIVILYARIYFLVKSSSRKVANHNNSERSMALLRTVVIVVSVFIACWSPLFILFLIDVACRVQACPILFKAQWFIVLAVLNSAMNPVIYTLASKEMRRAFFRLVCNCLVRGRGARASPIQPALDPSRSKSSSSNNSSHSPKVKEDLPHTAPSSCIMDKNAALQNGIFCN
Chain of hS1P1/CHO cells (P21453 whole entry): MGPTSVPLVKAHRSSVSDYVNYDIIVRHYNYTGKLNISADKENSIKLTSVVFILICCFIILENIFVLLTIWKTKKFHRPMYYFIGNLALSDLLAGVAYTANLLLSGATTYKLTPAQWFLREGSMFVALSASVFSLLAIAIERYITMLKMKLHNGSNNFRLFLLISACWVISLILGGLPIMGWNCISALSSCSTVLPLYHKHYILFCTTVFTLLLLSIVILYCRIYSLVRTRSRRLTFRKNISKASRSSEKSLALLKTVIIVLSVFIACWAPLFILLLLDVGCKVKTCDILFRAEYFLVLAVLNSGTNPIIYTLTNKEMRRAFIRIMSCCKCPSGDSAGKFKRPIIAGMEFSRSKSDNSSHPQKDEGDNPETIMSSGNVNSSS
Chain of S1P1 (membranes prepared from S1P1/CHO cells) (P21453 whole entry): as above
Chain of human S1P1 (P21453 whole entry): as above

EC50 (hS1P1/CHO cells) [nM] | IC50 (human S1P1) [nM] | EC50 [1] [nM] | EC50 [2] [nM] | SMILES
10 to 100 | 100 to 1000 | 100 to 1000 | > 625 | CN(C)C(=O)Cc1ccc(C[C@@H]2CCc3cc([C@H]4CC[C@](N)(COP(=O)(O)O)C4)ccc3C2)cc1 [compound 562]
100 to 1000 | 100 to 1000 | 100 to 1000 | > 625 | COc1ccccc1CCC[C@@H]1CCc2cc([C@H]3CC[C@](N)(COP(=O)(O)O)C3)ccc2C1 [compound 563]
10 to 100 | 10 to 100 | 10 to 100 | > 625 | COc1cccc(CCC[C@@H]2CCc3cc([C@H]4CC[C@](N)(COP(=O)(O)O)C4)ccc3C2)c1 [compound 564]
10 to 100 | < 10 | < 10 | > 625 | COc1cccc(C[C@H]2CCc3cc([C@H]4CC[C@](N)(COP(=O)(O)O)C4)ccc3C2)c1 [compound 567]
< 10 | 10 to 100 | < 10 | > 625 | COc1ccc(C[C@H]2CCc3cc([C@H]4CC[C@](N)(COP(=O)(O)O)C4)ccc3C2)cc1 [compound 568]
< 10 | < 10 | 10 to 100 | > 625 | N[C@]1(COP(=O)(O)O)CC[C@H](c2ccc3c(c2)CC[C@H](c2ccccc2)C3)C1 [compound 569]
10 to 100 | 10 to 100 | 10 to 100 | > 625 | N[C@]1(COP(=O)(O)O)CC[C@H](c2ccc3c(c2)CC[C@@H](Cc2ccccc2)C3)C1 [compound 571]
10 to 100 | < 10 | < 10 | > 625 | N[C@]1(COP(=O)(O)O)CC[C@H](c2ccc3c(c2)CC[C@H](Cc2ccccc2)C3)C1 [compound 572]
10 to 100 | 10 to 100 | 10 to 100 | > 625 | N[C@]1(COP(=O)(O)O)CC[C@H](c2ccc3c(c2)CC[C@@H](CCc2ccccc2)C3)C1 [compound 573]
< 10 | 10 to 100 | 10 to 100 | > 625 | CCCCCC1CCc2cc([C@H]3CC[C@](N)(COP(=O)(O)O)C3)ccc2C1 (stereo partly drawn) [compound 575]
10 to 100 | 10 to 100 | 100 to 1000 | > 625 | CCCCCC1CCc2cc([C@H]3CC[C@](N)(COP(=O)(O)O)C3)ccc2C1 (stereo partly drawn) [compound 576]
< 10 | < 10 | < 10 | > 625 | CCCCC[C@@H]1CCc2cc([C@@H]3CC[C@@](N)(COP(=O)(O)O)C3)ccc2C1 [compound 577]
< 10 | < 10 | 10 to 100 | > 625 | CCCCC[C@H]1CCc2cc([C@@H]3CC[C@@](N)(COP(=O)(O)O)C3)ccc2C1 [compound 578]
< 10 | < 10 | 10 to 100 | > 625 | C#CCCOCCO[C@H]1CCc2cc([C@@H]3CC[C@@](N)(COP(=O)(O)O)C3)ccc2C1 [compound 586]
< 10 | < 10 | 10 to 100 | > 625 | CC(C)CCOCCO[C@H]1CCc2cc([C@H]3CC[C@](N)(COP(=O)(O)O)C3)ccc2C1 [compound 587]
< 10 | 10 to 100 | 10 to 100 | > 625 | CCCCOCCO[C@H]1CCc2cc([C@@H]3CC[C@@](N)(COP(=O)(O)O)C3)ccc2C1 [compound 591]
< 10 | < 10 | 10 to 100 | > 625 | CCCCOCCO[C@@H]1CCc2cc([C@@H]3CC[C@@](N)(COP(=O)(O)O)C3)ccc2C1 [compound 592]
100 to 1000 | 10 to 100 | 10 to 100 | > 625 | COc1ccc(CC[C@H]2CCc3cc([C@@H]4CC[C@@](N)(COP(=O)(O)O)C4)ccc3C2)cc1 [compound 594]
< 10 | < 10 | 10 to 100 | > 625 | COCCC[C@H]1CCc2cc([C@@H]3CC[C@@](N)(COP(=O)(O)O)C3)ccc2C1 [compound 595]
< 10 | < 10 | 10 to 100 | > 625 | COCCCC[C@H]1CCc2cc([C@@H]3CC[C@@](N)(COP(=O)(O)O)C3)ccc2C1 [compound 596]
< 10 | 10 to 100 | 10 to 100 | > 625 | COCCCCC[C@H]1CCc2cc([C@@H]3CC[C@@](N)(COP(=O)(O)O)C3)ccc2C1 [compound 598]

EC50 (hS1P1/CHO cells) [nM] | IC50 (human S1P1) [nM] | EC50 [1] [nM] | EC50 [2] [nM] | SMILES
< 10 | 10 to 100 | < 10 | > 625 | CC(C)OCCC[C@H]1CCc2cc([C@@H]3CC[C@@](N)(COP(=O)(O)O)C3)ccc2C1 [compound 600]
< 10 | < 10 | < 10 | > 625 | CC(C)OCCC[C@@H]1CCc2cc([C@@H]3CC[C@@](N)(COP(=O)(O)O)C3)ccc2C1 [compound 602]
< 10 | < 10 | < 10 | > 625 | N[C@@]1(COP(=O)(O)O)CC[C@@H](c2ccc3c(c2)CC[C@@H](CCc2ccc4ccccc4n2)C3)C1 [compound 605]
< 10 | 10 to 100 | < 10 | > 100 | CC(C)OCCCC[C@H]1CCc2cc([C@H]3CC[C@](N)(COP(=O)(O)O)C3)ccc2C1 [compound 610]
< 10 | 100 to 1000 | 100 to 1000 | > 625 | N[C@]1(COP(=O)(O)O)CC[C@H](c2ccc3c(c2)CC[C@H](CS(=O)(=O)c2ccccc2)C3)C1 [compound 618]
100 to 1000 | 1000 to 10000 | < 10 | > 625 | CCCCC(C)(C)C(=O)OC1CCc2cc([C@H]3CC[C@@](N)(COP(=O)(O)O)C3)ccc2C1 (stereo partly drawn) [compound 624]
< 10 | 10 to 100 | 10 to 100 | > 625 | CCCCCCNC(=O)OC1CCc2cc([C@H]3CC[C@@](N)(COP(=O)(O)O)C3)ccc2C1 (stereo partly drawn) [compound 626]
< 10 | 100 to 1000 | 100 to 1000 | > 625 | CCCCCC(=O)NC1CCc2cc([C@H]3CC[C@@](N)(COP(=O)(O)O)C3)ccc2C1 (stereo partly drawn) [compound 629]
< 10 | 10 to 100 | 10 to 100 | > 625 | CCCC[C@H]1CCCC2(CCc3cc([C@H]4CC[C@](N)(COP(=O)(O)O)C4)ccc3C2)O1 (stereo partly drawn) [compound 632]
< 10 | 10 to 100 | 100 to 1000 | > 625 | CCCC[C@@H]1CCCC2(CCc3cc([C@H]4CC[C@](N)(COP(=O)(O)O)C4)ccc3C2)O1 (stereo partly drawn) [compound 633]
< 10 | < 10 | 10 to 100 | > 625 | CCCCC1CCc2cc([C@H]3CC[C@](N)(COP(=O)(O)O)C3)ccc2C1=O (stereo partly drawn) [compound 635]
10 to 100 | 10 to 100 | 10 to 100 | > 625 | CCCC/C=C/[C@@H]1CCc2cc([C@H]3CC[C@](N)(COP(=O)(O)O)C3)ccc2C1 [compound 636]
10 to 100 | < 10 | 10 to 100 | > 625 | CCCC/C=C/[C@@H]1CCc2cc([C@H]3CC[C@](N)(COP(=O)(O)O)C3)ccc2C1 [compound 637]
< 10 | < 10 | 10 to 100 | > 100 | COCCC/C=C/[C@H]1CCc2cc([C@H]3CC[C@](N)(COP(=O)(O)O)C3)ccc2C1 [compound 638]
10 to 100 | 10 to 100 | 10 to 100 | > 625 | C=CCC/C=C/[C@@H]1CCc2cc([C@H]3CC[C@](N)(COP(=O)(O)O)C3)ccc2C1 [compound 639]
< 10 | < 10 | < 10 | > 625 | COCCC/C=C/[C@@H]1CCc2cc([C@H]3CC[C@](N)(COP(=O)(O)O)C3)ccc2C1 [compound 640]
10 to 100 | 100 to 1000 | 10 to 100 | > 625 | COc1ccccc1/C=C/[C@@H]1CCc2cc([C@H]3CC[C@](N)(COP(=O)(O)O)C3)ccc2C1 [compound 641]
< 10 | 10 to 100 | < 10 | > 625 | N[C@]1(COP(=O)(O)O)CC[C@H](c2ccc3c(c2)CC[C@@H](/C=C/C2CCOCC2)C3)C1 [compound 642]
10 to 100 | < 10 | 10 to 100 | > 625 | COc1cccc(/C=C/[C@@H]2CCc3cc([C@H]4CC[C@](N)(COP(=O)(O)O)C4)ccc3C2)c1 [compound 643]
100 to 1000 | 100 to 1000 | 10 to 100 | > 625 | Cc1cccc(/C=C/[C@@H]2CCc3cc([C@H]4CC[C@](N)(COP(=O)(O)O)C4)ccc3C2)c1 [compound 644]
10 to 100 | 100 to 1000 | 10 to 100 | > 625 | CC(C)CC/C=C/[C@@H]1CCc2cc([C@H]3CC[C@](N)(COP(=O)(O)O)C3)ccc2C1 [compound 645]
